Reference: US4965280A, “Antifungal carbinols” (E. I. Du Pont de Nemours and Company, priority 1989, dated 1990)
In brackets after ≈: the same amount, converted by molar mass. Where two headings read alike, the source gives them in different places.

How the values were obtained:
[1] = system: Candida albicans ATCC 11651; assay: In vivo systemic Candida infection in mice, primary assay; design: species or system Candida albicans; CF-1 female mice; settings: 150 mg/kg per day; for responders at 150 mg/kg: Candida albicans, read-out: % Survival
Excerpt: The […] activity of test compounds is based on the percent (%) survival of infected animals receiving test or standard agent compared to that in an infected untreated group (Table 6). The in vivo assays are chronic systemic infections lethal to mice within 7 days post infection, [J. Barnes, et al. Lab Investigation, 49 460-467 (1963), and T. Rogers and E. Balish, Infection and Immunity, 14 33-38 (1976)].
Candida albicans ATCC 11651, from a frozen stock culture (10^9 organisms/ml) maintained at -70°, is diluted in saline to 1×10^7 organisms/ml and 0.2 ml inoculated intravenously (caudal vein) into 20.0 gm CF-1 female mice (Charles River).
Test compounds are routinely solubilized in 0.25% (w/v) methylcellulose (Methocel®) but for those compounds difficult to solubilize 10% (w/v) Emulophor® (EL620 GAF Corp.) is used. The standard antifungal agents, amphotericin B (Fungizone®) in water and ketoconazole (Nizoral®) in Methocel®, are administered at 1.0 mg/kg/day and 150 mg/kg/day, respectively.
In a primary assay, mice (10 per group) are infected with C. albicans, and receive test compounds at 50 or 150 mg/kg/day via the subcutaneous route. Animals are dosed with the test compound at 1 and 6 hour post-infection and then once daily for the next three days. Survival of mice in each group is recorded for 21 days.
Compounds which protect ≥70% of the infected animals for 14 days at a dose 150 mg/kg/day or less are viewed as active.

[2] = system: Erysiphe graminis f. sp. tritici; assay: Example D wheat powdery mildew; assay type: in vivo; settings: Blumeria graminis, 144 h, read-out: disease control rating, Ex. D
Description: (§1) The test compounds were dissolved in acetone in an amount equal to 6% of the final volume and then suspended at a concentration of 100 or 20 ppm in purified water containing 250 ppm of the surfactant TREM 014 (polyhydric alcohol esters). This suspension was sprayed to the point of run-off on wheat seedlings.

Plasmorpara viticola = assay: Example I grape downy mildew; assay type: in vivo; settings: for pest or weed control at 100 ppm: read-out: disease control rating, Ex. I
Description: as §1, with “grape” for “wheat”

Pyricularia oryzae = assay: whole plant or invertebrate; assay type: in vivo; settings: for pest or weed control at 20 ppm / pest or weed control at 100 ppm: Pyricularia oryzae, 120 h; for pest or weed control at 20 ppm: read-out: disease control rating, Ex. E, 20 PPM; for pest or weed control at 100 ppm: read-out: disease control rating, Ex. E, 100 PPM
[3] = system: Candida albicans ATCC 11651; assay: In vitro antifungal MIC, microtiter broth dilution; settings: for MIC: Candida albicans, ATCC11651, 24 h, read-out: MIC values, C. albicans, 30°, 24 hours
Description: (§2) In vitro activity (Table 5) is expressed in terms of the minimal inhibitory concentration (MIC) of the test compound which inhibits the growth of yeasts and fungi.
(§3) The target organisms, Candida albicans ATCC 11651 and Aspergillus fumigatus ATCC 28214 are standardized, [V. Bezjak, J. Clinical Micro., 21 509-512 (1984)], to a concentration of 10^7 organisms/ml and maintained at -70° until use. Test compounds are solubilized in dimethyl sulfoxide (DMSO) and diluted in Eagle's Minimum Essential Medium (EMEM) broth to achieve a final concentration of 200 μg/ml. Stock solutions of standard antifungal agents are stored at -70° and diluted in EMEM as required.
(§4) The in vitro assay utilizes a microtiter broth dilution technique [L. Polonelli and G. Morace, Mycopathologia, 86, 21-28 (1984)] and C. […] The appropriate wells are inoculated with the required organism (C. albicans at 1×10^4 organisms/ml and A. fumigatus at 5×10^5 organisms/ml) and the assay incubated at 30° for 24 hours.

[4] = system: Cercosporidium personatum; assay: Example B Peanut Late Leafspot; assay type: in vivo; settings: Nothopassalora personata, read-out: disease control rating, Ex. B
Description: as §1, with “peanut” for “wheat”

Botrytis cinerea = assay: Example C bean grey mold; assay type: in vivo; settings: for pest or weed control at 20 ppm / pest or weed control at 100 ppm: Botrytis cinerea, 24 h, read-out: disease control rating, Ex. C
Description: as §1, with “broad bean” for “wheat”

Puccinia recondita = assay: Example G wheat leaf rust; assay type: in vivo; settings: read-out: disease control rating, Ex. G
Rhizoctonia solani = assay: Example F rice sheath blight; assay type: in vivo; settings: for pest or weed control at 20 ppm / pest or weed control at 100 ppm: Rhizoctonia solani, 144 h, read-out: disease control rating, Ex. F
Description: as §1, with “rice” for “wheat”

Phytophthora infestans = assay: whole plant or invertebrate; assay type: in vivo; settings: for pest or weed control at 100 ppm: Phytophthora infestans, in Solanum lycopersicum, read-out: disease control rating, Ex. H, 100 PPM
[5] = system: Aspergillus fumigatus ATCC 28214; assay: In vitro antifungal MIC, microtiter broth dilution; settings: for MIC: Aspergillus fumigatus, ATCC28214, 24 h, read-out: MIC values, A. fumigatus, 30°, 24 hours
Description: as §2, §3, §4

Venturia inaequalis = assay: Example A apple scab; assay type: in vivo; settings: read-out: disease control rating, Ex. A
Description: as §1, with “apple seedings.” for “wheat seedlings.”

C=C(c1ccc(SC)cc1)C(O)(Cn1cncn1)c1ccc(F)cc1 (stereo not shown) [Example 163]
responders at 150 mg/kg ([1]; ATCC11651, 168 h, day 7): 90%
responders at 150 mg/kg ([1]; ATCC11651, 336 h, day 14): 60%
responders at 150 mg/kg ([1]; ATCC11651, 504 h, day 21): 40%
pest or weed control at 20 ppm [2]: 23%
pest or weed control at 100 ppm (Plasmorpara viticola): 0%
pest or weed control at 20 ppm (Pyricularia oryzae): 5%
pest or weed control at 100 ppm (Pyricularia oryzae): 5%
MIC [3]: 0.03 mg/L (≈ 0.0844 µM)
pest or weed control at 20 ppm [4]: 81%
pest or weed control at 20 ppm (Botrytis cinerea): 58%
pest or weed control at 100 ppm (Botrytis cinerea; 100 PPM): 95%
pest or weed control at 20 ppm (Puccinia recondita): 99%
pest or weed control at 20 ppm (Rhizoctonia solani): 0%
pest or weed control at 100 ppm (Rhizoctonia solani; 100 PPM): 0%
pest or weed control at 100 ppm (Phytophthora infestans): 0%
MIC [5]: 12.5 mg/L (≈ 35.2 µM)
pest or weed control at 20 ppm (Venturia inaequalis): 0%

C=C(c1cccc(Cl)c1)C(O)(Cn1cncn1)c1ccccc1F (stereo not shown) [Example 47]
responders at 150 mg/kg ([1]; ATCC11651, 168 h, day 7): 90%
responders at 150 mg/kg ([1]; ATCC11651, 336 h, day 14): 80%
responders at 150 mg/kg ([1]; ATCC11651, 504 h, day 21): 30%
pest or weed control at 20 ppm [2]: 98%
pest or weed control at 100 ppm (Plasmorpara viticola): 25%
pest or weed control at 20 ppm (Pyricularia oryzae): 15%
pest or weed control at 100 ppm (Pyricularia oryzae): 31%
MIC [3]: 0.03 mg/L (≈ 0.0873 µM)
pest or weed control at 20 ppm [4]: 100%
pest or weed control at 20 ppm (Botrytis cinerea): 26%
pest or weed control at 100 ppm (Botrytis cinerea; 100 PPM): 89%
pest or weed control at 20 ppm (Puccinia recondita): 100%
pest or weed control at 20 ppm (Rhizoctonia solani): 0%
pest or weed control at 100 ppm (Rhizoctonia solani; 100 PPM): 47%
pest or weed control at 100 ppm (Phytophthora infestans): 0%
MIC [5]: 1.6 mg/L (≈ 4.65 µM)
pest or weed control at 20 ppm (Venturia inaequalis): 93%

C=C(c1ccccc1)C(O)(Cn1cncn1)c1ccccc1Cl (stereo not shown) [Example 596]
responders at 150 mg/kg ([1]; ATCC11651, 168 h, day 7): 70%
responders at 150 mg/kg ([1]; ATCC11651, 336 h, day 14): 60%
responders at 150 mg/kg ([1]; ATCC11651, 504 h, day 21): 40%
pest or weed control at 20 ppm [2]: 94%
pest or weed control at 100 ppm (Plasmorpara viticola): 25%
pest or weed control at 20 ppm (Pyricularia oryzae): 0%
pest or weed control at 100 ppm (Pyricularia oryzae): 0%
MIC [3]: 0.05 mg/L (≈ 0.153 µM)
pest or weed control at 20 ppm [4]: 95%
pest or weed control at 20 ppm (Botrytis cinerea): 35%
pest or weed control at 100 ppm (Botrytis cinerea; 100 PPM): 89%
pest or weed control at 20 ppm (Puccinia recondita): 100%
pest or weed control at 20 ppm (Rhizoctonia solani): 0%
pest or weed control at 100 ppm (Rhizoctonia solani; 100 PPM): 0%
pest or weed control at 100 ppm (Phytophthora infestans): 0%
MIC [5]: 0.4 mg/L (≈ 1.23 µM)
pest or weed control at 20 ppm (Venturia inaequalis): 91%

C=C(c1ccc(F)cc1)C(O)(Cn1cncn1)c1ccc(F)cc1 (single isomer, unassigned) [Example 1277a]
% Survival ([1]; day 7): 80%
% Survival ([1]; day 14): 0%
% Survival ([1]; day 21): 0%
pest or weed control at 20 ppm [2]: 95%
disease control rating, Ex. I (Plasmorpara viticola; 100 PPM): 31%
disease control rating, Ex. E (Pyricularia oryzae; 100 PPM): 1%
pest or weed control at 20 ppm (Pyricularia oryzae): 1%
MIC values, C. albicans ([3]; 30°, 24 hours): 6.3 mg/L (≈ 19.2 µM)
pest or weed control at 20 ppm [4]: 74%
disease control rating, Ex. C (Botrytis cinerea; 100 PPM): 36%
pest or weed control at 20 ppm (Botrytis cinerea): 24%
pest or weed control at 20 ppm (Puccinia recondita): 100%
disease control rating, Ex. F (Rhizoctonia solani; 100 PPM): 52%
pest or weed control at 20 ppm (Rhizoctonia solani): 0%
disease control rating, Ex. H (Phytophthora infestans; 100 PPM): 8%
MIC values, A. fumigatus ([5]; 30°, 24 hours): 100 mg/L (≈ 305 µM)
pest or weed control at 20 ppm (Venturia inaequalis): 58%

C=C(c1ccc(F)cc1)C(O)(Cn1cncn1)c1ccc(OC)cc1 (stereo not shown) [Example 663]
pest or weed control at 100 ppm [2]: 99%
pest or weed control at 100 ppm (Plasmorpara viticola): 39%
pest or weed control at 100 ppm (Pyricularia oryzae): 57%
pest or weed control at 100 ppm [4]: 100%
pest or weed control at 100 ppm (Botrytis cinerea; 100 PPM): 95%
pest or weed control at 100 ppm (Puccinia recondita): 100%
pest or weed control at 100 ppm (Rhizoctonia solani; 100 PPM): 36%
pest or weed control at 100 ppm (Phytophthora infestans): 0%
pest or weed control at 100 ppm (Venturia inaequalis): 42%

C=C(c1cccc(Cl)c1)C(O)(Cn1cncn1)c1ccc(F)cc1F (stereo not shown) [Example 42]
responders at 150 mg/kg ([1]; ATCC11651, 168 h, day 7): 80%
responders at 150 mg/kg ([1]; ATCC11651, 336 h, day 14): 80%
responders at 150 mg/kg ([1]; ATCC11651, 504 h, day 21): 50%
pest or weed control at 20 ppm [2]: 98%
pest or weed control at 100 ppm [2]: 100%
pest or weed control at 100 ppm (Plasmorpara viticola): 23%
pest or weed control at 20 ppm (Pyricularia oryzae): 15%
pest or weed control at 100 ppm (Pyricularia oryzae): 31%
MIC [3]: 0.03 mg/L (≈ 0.0829 µM)
pest or weed control at 20 ppm [4]: 100%
pest or weed control at 20 ppm (Botrytis cinerea): 38%
pest or weed control at 100 ppm (Botrytis cinerea; 100 PPM): 100%
pest or weed control at 20 ppm (Puccinia recondita): 100%
pest or weed control at 20 ppm (Rhizoctonia solani): 0%
pest or weed control at 100 ppm (Rhizoctonia solani; 100 PPM): 41%
pest or weed control at 100 ppm (Phytophthora infestans): 0%
MIC [5]: 6.3 mg/L (≈ 17.4 µM)
pest or weed control at 20 ppm (Venturia inaequalis): 29%

C=C(CN(C)C)C(O)(Cn1cncn1)c1ccc(F)cc1 (stereo not shown) [Example 454]
pest or weed control at 100 ppm [2]: 22%
pest or weed control at 100 ppm (Plasmorpara viticola): 0%
pest or weed control at 100 ppm (Pyricularia oryzae): 0%
MIC [3]: 100 mg/L (≈ 344 µM)
pest or weed control at 100 ppm [4]: 0%
pest or weed control at 100 ppm (Botrytis cinerea; 100 PPM): 0%
pest or weed control at 100 ppm (Puccinia recondita): 0%
pest or weed control at 100 ppm (Rhizoctonia solani; 100 PPM): 0%
pest or weed control at 100 ppm (Phytophthora infestans): 0%
MIC [5]: > 100 mg/L
pest or weed control at 100 ppm (Venturia inaequalis): 0%

OC(Cn1cncn1)(C(=Cc1ccccc1)c1ccccc1)c1ccc(F)cc1 (stereo not shown) [Example 291]
pest or weed control at 20 ppm [2]: 83%
pest or weed control at 100 ppm (Plasmorpara viticola): 78%
pest or weed control at 20 ppm (Pyricularia oryzae): 1%
pest or weed control at 100 ppm (Pyricularia oryzae): 1%
MIC [3]: 0.2 mg/L (≈ 0.519 µM)
pest or weed control at 20 ppm [4]: 26%
pest or weed control at 20 ppm (Botrytis cinerea): 6%
pest or weed control at 100 ppm (Botrytis cinerea; 100 PPM): 81%
pest or weed control at 20 ppm (Puccinia recondita): 73%
pest or weed control at 20 ppm (Rhizoctonia solani): 0%
pest or weed control at 100 ppm (Rhizoctonia solani; 100 PPM): 0%
pest or weed control at 100 ppm (Phytophthora infestans): 24%
MIC [5]: 100 mg/L (≈ 259 µM)
pest or weed control at 20 ppm (Venturia inaequalis): 32%

C=C(c1ccc([S+](C)[O-])cc1)C(O)(Cn1cncn1)c1ccc(F)cc1 (stereo not shown) [Example 170]
pest or weed control at 20 ppm [2]: 95%
pest or weed control at 100 ppm (Plasmorpara viticola): 0%
pest or weed control at 20 ppm (Pyricularia oryzae): 0%
pest or weed control at 100 ppm (Pyricularia oryzae): 10%
MIC [3]: 1.6 mg/L (≈ 4.31 µM)
pest or weed control at 20 ppm [4]: 69%
pest or weed control at 20 ppm (Botrytis cinerea): 32%
pest or weed control at 100 ppm (Botrytis cinerea; 100 PPM): 20%
pest or weed control at 20 ppm (Puccinia recondita): 100%
pest or weed control at 20 ppm (Rhizoctonia solani): 0%
pest or weed control at 100 ppm (Rhizoctonia solani; 100 PPM): 0%
pest or weed control at 100 ppm (Phytophthora infestans): 0%
MIC [5]: 100 mg/L (≈ 269 µM)
pest or weed control at 20 ppm (Venturia inaequalis): 19%

C=C(c1ccc(S(C)(=O)=O)cc1)C(O)(Cn1cncn1)c1ccc(F)cc1 (stereo not shown) [Example 177]
pest or weed control at 20 ppm [2]: 46%
pest or weed control at 100 ppm (Plasmorpara viticola): 0%
pest or weed control at 20 ppm (Pyricularia oryzae): 0%
pest or weed control at 100 ppm (Pyricularia oryzae): 10%
MIC [3]: 3.2 mg/L (≈ 8.26 µM)
pest or weed control at 20 ppm [4]: 26%
pest or weed control at 20 ppm (Botrytis cinerea): 50%
pest or weed control at 100 ppm (Botrytis cinerea; 100 PPM): 26%
pest or weed control at 20 ppm (Puccinia recondita): 100%
pest or weed control at 20 ppm (Rhizoctonia solani): 0%
pest or weed control at 100 ppm (Rhizoctonia solani; 100 PPM): 0%
pest or weed control at 100 ppm (Phytophthora infestans): 0%
MIC [5]: > 100 mg/L
pest or weed control at 20 ppm (Venturia inaequalis): 82%
